Patent US7569568B2, “Cytokine inhibitors” (Boehringer Ingelheim Pharmaceuticals, Inc., priority 2002, dated 2009)

Row | melting point | SMILES
1 | 199 °C | COC(=O)c1cn(-c2cc(C(=O)Nc3cc(C(C)(C)C)cc(NS(C)(=O)=O)c3OC)cc(C)c2C)nn1 [Example 16, 1-[5-(5-tert-butyl-3-methanesulfonylamino-2-methoxy-phenylcarbamoyl)-2,3-dimethyl-phenyl]-1H-1,2,3-triazole-4-carboxylic acid methyl ester]
2 | 204 to 205 °C | COC(=O)c1nnn(-c2cc(C(=O)Nc3cc(C(C)(C)C)cc(NS(C)(=O)=O)c3OC)ccc2C)c1N [Example 9, 5-amino-1-[5-(5-tert-butyl-3-methanesulfonylamino-2-methoxy-phenylcarbamoyl)-2-methyl-phenyl]-1H-1,2,3-triazole-4-carboxylic acid methyl ester]
3 | 198 °C | COC(=O)c1cn(-c2cc(C(=O)Nc3cc(C(C)(C)C)cc(NS(C)(=O)=O)c3OC)ccc2C)nn1 [Example 1, 1-[5-(5-tert-butyl-3-methanesulfonylamino-2-methoxy-phenylcarbamoyl)-2-methyl-phenyl]-1H-1,2,3-triazole-4-carboxylic acid methyl ester]
4 | > 250 °C | COc1c(NC(=O)c2ccc(C)c(-n3cc(C(N)=O)nn3)c2)cc(C(C)(C)C)cc1NS(C)(=O)=O [Example 66, 1-[5-(5-tert-butyl-3-methanesulfonylamino-2-methoxyphenyl-carbamoyl)-2-methyl-phenyl]-1H-1,2,3-triazole-4-carboxylic acid amide]
5 | 251 to 252 °C (dec.) | COC(=O)c1cn(-c2cc(C(=O)Nc3cc(C(C)(C)C)cc(NS(C)(=O)=O)c3OC)ccc2Cl)nn1 [Example 8, 1-[5-(5-tert-butyl-3-methanesulfonylamino-2-methoxyphenyl-carbamoyl)-2-chloro-phenyl]-1H-1,2,3-triazole-4-carboxylic acid methyl ester]
6 | 205 to 207 °C | COc1c(NC(=O)c2ccc(C)c(-n3cc(C(=O)NCc4ccccc4)nn3)c2)cc(C(C)(C)C)cc1NS(C)(=O)=O [Example 24, 1-[5-(5-tert-butyl-3-methanesulfonylamino-2-methoxy-phenylcarbamoyl)-2-methyl-phenyl]-1H-1,2,3-triazole-4-carboxylic acid benzylamide]
7 | 206 to 209 °C (dec.) | COc1c(NC(=O)c2cc(C)c(C)c(-n3cc(C(=O)NCCN4CCOCC4)nn3)c2)cc(C(C)(C)C)cc1NS(C)(=O)=O [Example 28, 1-[5-(5-tert-butyl-3-methanesulfonylamino-2-methoxy-phenylcarbamoyl)-2,3-dimethyl-phenyl]-1H-1,2,3-triazole-4-carboxylic acid (2-morpholin-4-yl-ethyl)-amide]
8 | 189 to 193 °C | COc1c(NC(=O)c2ccc(C)c(-n3nnc(C(=O)NCC(C)(C)C)c3N)c2)cc(C(C)(C)C)cc1NS(C)(=O)=O [Example 68, 5-amino-1-[5-(5-tert-butyl-3-methanesulfonylamino-2-methoxy-phenylcarbamoyl)-2-methyl-phenyl]-1H-1,2,3-triazole-4-carboxylic acid (2,2-dimethyl-propyl)-amide]
